Where “and” joins values, the source holds several entries; their conditions need not be identical. Identical values can stand only once. Counter-ions that a name gives are not always drawn. Like-named read-outs stand apart in the source and are kept apart here. Blank lines part the entries; values can stand above or below the molecule they belong to.
What was measured:
[1] = tested on: rat intestine (proximal jejunum and distal ileum); experiment: In situ single-pass intestinal perfusion; type: in vivo; conditions: physiological vs alternate pH, HDS, n = 6
pKa = type: physicochemical
Caco-2 cell monolayers [2] = conditions: human, Caco-2, pH 7.5
[3] = cited from earlier work
rat small intestine = conditions: cited from earlier work
[4] = Transport studies across Caco-2 cell monolayers; conditions: human
P-gp = conditions: cited from earlier work
Caco-2 cell monolayers [5] = experiment: Transport studies across Caco-2 cell monolayers
Caco-2 cells = conditions: Caco-2, initial concentration based on HDS in 250 ml water; cited from earlier work

Effect of change of pH (6.5 vs 7.5) on permeability in jejunum and ileum [1]: did not significantly affect
Isoelectric point (maximum unionized fraction) (pKa): 8.4 pH
Increase in AP-BL direction transport caused by verapamil (Caco-2 cell monolayers [2]): 1.5 times
Papp at 120 min ([4]; Caco-2, pH 6.5): 5.96 ± 1.96 ×10⁻⁶ cm/s
Papp A→B at 120 min, 120 μg/ml ([4]; Caco-2, pH 7.5): 14.2 ± 1.5 ×10⁻⁶ cm/s
Papp B→A at 120 min, 120 μg/ml ([4]; Caco-2, pH 7.5): 46.7 ± 6.5 ×10⁻⁶ cm/s
Papp at 120 min ([4]; Caco-2, pH 7.5): 15.9 ± 2.2 ×10⁻⁶ cm/s
Structure (SMILES): CC(CCc1ccccc1)NCC(O)c1ccc(O)c(C(N)=O)c1 (stereo not drawn) [Labetalol]
Time to reach maximum plasma concentration (tmax) ([3]; 100 mg oral dose, healthy volunteers): 48 min
Systemic BA (mean) ([3]; hypertensive subjects): 33%
Dose excreted in the urine as unchanged drug ([3]; man): up to 5%
Orally administered dose of radioactivity excreted by urine ([3]; within 24 h, two subjects, 200 mg oral dose): 55% and 60%
Increase in apparent absorption rate constant of labetalol produced by verapamil (rat small intestine; highest labetalol concentration (100)): about 53%
Increase in apparent absorption rate constant of labetalol produced by verapamil (rat small intestine; lowest labetalol concentration (10)): about 84%

Structure (SMILES): CC(CCc1ccccc1)NCC(O)c1ccc(O)c(C(N)=O)c1 (stereo not drawn) [labetalol hydrochloride]
Absorption from the GI tract ([3]; FDA product information of Trandate): completely absorbed

Effect of change of pH (6.5 vs 7.5) on permeability in jejunum and ileum [1]: did not significantly affect
Papp at 120 min ([4]; Caco-2, pH 6.5): 9.44 ± 3.44 ×10⁻⁶ cm/s
Papp at 120 min ([4]; Caco-2, pH 7.5): 23.2 ± 7.1 ×10⁻⁶ cm/s
Effect of verapamil on permeability in AP-BL and BL-AP directions (Caco-2 cell monolayers [5]; 0.1 mM verapamil, 0.1 times HDS (40 μg/ml), AP pH 7.5): no effect
Increase of ER under AP pH 6.5 (Caco-2 cell monolayers [5]; AP pH 6.5 compared with AP pH 7.5): 3.6 times
Structure (SMILES): COCCc1ccc(OCC(O)CNC(C)C)cc1 (stereo not drawn) [Metoprolol]
Interaction with P-gp (P-gp): does not interact with P-gp

Structure (SMILES): CCn1cc(C(=O)O)c(=O)c2cc(F)c(N3CCNC(C)C3)c(F)c21 (stereo not drawn) [lemofloxacin, lomefloxacin]
Permeability classification based on comparison to labetalol (Caco-2 cells): high permeability
